Measured values published in patent publication US20230183239A1, “ECTONUCLEOTIDE PYROPHOSPHATASE-PHOSPHODIESTERASE 1 (ENPP-1) INHIBITORS AND USES THEREOF” (AbbVie Inc., priority 2017, published 2023).

Columns and labels:
Assay type in all cases: biochemical
ENPP1 [1] = molecular target: T1, ENPP1 (Homo sapiens, UniProt P22413); assay: Substrate selectivity ratio, inhibition of cGAMP hydrolysis versus ATP hydrolysis; settings: ratio Ki AMP-pNP / Ki cGAMP
T1 sequence (P22413 1-925): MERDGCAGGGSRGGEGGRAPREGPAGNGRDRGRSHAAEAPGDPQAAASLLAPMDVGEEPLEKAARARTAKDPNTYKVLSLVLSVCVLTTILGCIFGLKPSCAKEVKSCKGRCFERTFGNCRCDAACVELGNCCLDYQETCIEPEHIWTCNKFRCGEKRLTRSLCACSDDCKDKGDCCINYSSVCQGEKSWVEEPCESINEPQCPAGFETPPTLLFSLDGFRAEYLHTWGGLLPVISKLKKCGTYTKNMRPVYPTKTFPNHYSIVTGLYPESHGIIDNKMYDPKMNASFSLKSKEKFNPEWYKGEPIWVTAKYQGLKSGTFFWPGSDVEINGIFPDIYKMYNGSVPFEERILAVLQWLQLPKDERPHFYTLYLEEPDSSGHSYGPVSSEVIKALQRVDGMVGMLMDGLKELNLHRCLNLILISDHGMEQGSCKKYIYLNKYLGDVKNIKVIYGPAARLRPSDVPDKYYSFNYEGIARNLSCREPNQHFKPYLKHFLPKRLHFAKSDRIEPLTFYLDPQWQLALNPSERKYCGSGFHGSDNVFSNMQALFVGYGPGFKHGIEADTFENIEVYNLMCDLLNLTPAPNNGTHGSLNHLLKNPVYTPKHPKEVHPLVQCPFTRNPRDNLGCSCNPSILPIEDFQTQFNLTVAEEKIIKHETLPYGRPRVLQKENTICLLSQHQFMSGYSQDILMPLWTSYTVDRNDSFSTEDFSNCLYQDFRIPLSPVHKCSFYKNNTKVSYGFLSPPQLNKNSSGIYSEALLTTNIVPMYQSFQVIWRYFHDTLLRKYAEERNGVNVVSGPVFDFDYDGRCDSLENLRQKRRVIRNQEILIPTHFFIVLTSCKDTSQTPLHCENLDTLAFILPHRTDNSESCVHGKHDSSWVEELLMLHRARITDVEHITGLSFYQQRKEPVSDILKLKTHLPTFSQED
Method: The selectivity ratios for inhibition of cGAMP hydrolysis versus ATP hydrolysis were then calculated as follows: […]

ENPP1 [2] = molecular target: T1, ENPP1; assay: Indirect quantitation of 2',3'-cGAMP hydrolysis (AMP-Glo Assay kit); settings: cGAMP substrate; Ki from IC50 by Cheng-Prusoff; read-out: ENPP1 Inhibition -cGAMP: Ki
ENPP1 [3] = molecular target: T1, ENPP1; assay: ENPP1 enzyme assay with AMP-pNP substrate (hydrolysis of ATP analog); settings: AMP-pNP substrate (ATP analog); Ki from IC50 by Cheng-Prusoff; read-out: ENPP1 Inhibition _AMP-pNP: Ki
How it was run: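 Reactions ran 20 min at 37 °C, pH 8.5 Tris buffer with NaCl, CaCl2, ZnCl2, using 300 µM AMP-pNP and 60 ng/well recombinant human ENPP1; inhibitor range 10 µM–30 pM, duplicates.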

## COc1ccc2nccc(Oc3ccc(S(N)(=O)=O)cc3)c2c1 [Example 355, 4-((6-methoxyquinolin-4-yl)oxy)benzenesulfonamide]
ENPP1 [1]
  Substrate Selectivity: Ki_AMP-pNP/Ki_cGAMP: >53
ENPP1 [2]
  Ki: < 100 nM
ENPP1 [3]
  Ki: > 1000 nM

## COc1cc2ncnc(-c3ccc(CNS(N)(=O)=O)cc3)c2cc1OC [Example 144, N-(4-(6,7-dimethoxyquinazolin-4-yl)benzyl)sulfamide]
ENPP1 [1]
  Substrate Selectivity: Ki_AMP-pNP/Ki_cGAMP: 189.2
ENPP1 [2]
  Ki: < 100 nM
ENPP1 [3]
  Ki: 100 to 1000 nM

## COc1ccc2nccc(N3CCC4(CC3)CCN(S(N)(=O)=O)C4)c2c1 [Example 364, 8-(6-methoxyquinolin-4-yl)-2,8-diazaspiro[4.5]decane-2-sulfonamide]
ENPP1 [1]
  Substrate Selectivity: Ki_AMP-pNP/Ki_cGAMP: 43
ENPP1 [2]
  Ki: < 100 nM
ENPP1 [3]
  Ki: 100 to 1000 nM

## COc1cc2ncnc(N3CCC4(CCNC4)CC3)c2cc1OC [Example 274, 8-(6,7-dimethoxyquinazolin-4-yl)-2,8-diazaspiro[4.5]decane]
ENPP1 [1]
  Substrate Selectivity: Ki_AMP-pNP/Ki_cGAMP: >6.4
ENPP1 [2]
  Ki: 100 to 1000 nM
ENPP1 [3]
  Ki: > 1000 nM

## COc1cc2nccc(N3CC4(C3)CN(S(N)(=O)=O)C4)c2cc1OC [Example 214, 6-(6,7-dimethoxyquinolin-4-yl)-2,6-diazaspiro[3.3]heptane-2-sulfonamide]
ENPP1 [1]
  Substrate Selectivity: Ki_AMP-pNP/Ki_cGAMP: > 15.3
ENPP1 [2]
  Ki: 100 to 1000 nM
ENPP1 [3]
  Ki: > 1000 nM

## NS(=O)(=O)c1ccc(Oc2ccnc3[nH]c(=O)ccc23)cc1 [Example 352, 4-((7-oxo-7,8-dihydro-1,8-naphthyridin-4-yl)oxy)benzenesulfonamide]
ENPP1 [1]
  Substrate Selectivity: Ki_AMP-pNP/Ki_cGAMP: 43
ENPP1 [2]
  Ki: < 100 nM
ENPP1 [3]
  Ki: 100 to 1000 nM

## COc1ccc2c(Oc3ccc(S(N)(=O)=O)cc3)ncnc2c1 [Example 356, 4-((7-methoxyquinazolin-4-yl)oxy)benzene sulfonamide]
ENPP1 [1]
  Substrate Selectivity: Ki_AMP-pNP/Ki_cGAMP: 40
ENPP1 [2]
  Ki: < 100 nM
ENPP1 [3]
  Ki: 100 to 1000 nM

## COc1cc2ncnc(N3CCC(CCS(N)(=O)=O)CC3)c2cc1OC [Example 164, 2-(1-(6,7-dimethoxyquinazolin-4-yl)piperidin-4-yl)ethane-1-sulfonamide]
ENPP1 [1]
  Substrate Selectivity: Ki_AMP-pNP/Ki_cGAMP: 14.8
ENPP1 [2]
  Ki: < 100 nM
ENPP1 [3]
  Ki: < 100 nM

## COc1cc2nccc(N3CCc4cc(NS(N)(=O)=O)ccc43)c2cc1F [Example 72, N-(1-(6-fluoro-7-methoxyquinolin-4-yl)indolin-5-yl)sulfamide]
ENPP1 [1]
  Substrate Selectivity: Ki_AMP-pNP/Ki_cGAMP: 11.9
ENPP1 [2]
  Ki: < 100 nM
ENPP1 [3]
  Ki: < 100 nM

## COc1cc2nccc(Oc3ccc(NS(=O)(=O)c4ccccc4)cc3)c2cc1OC [Example 86, N-(4-((6,7-dimethoxyquinolin-4-yl)oxy)phenyl)benzenesulfonamide]
ENPP1 [1]
  Substrate Selectivity: Ki_AMP-pNP/Ki_cGAMP: >43.2
ENPP1 [2]
  Ki: < 100 nM
ENPP1 [3]
  Ki: 100 to 1000 nM

## COc1ccc2c(-c3ccc4c(c3)CN(S(N)(=O)=O)CC4)ccnc2c1 [Example 305, 7-(7-methoxyquinolin-4-yl)-3,4-dihydroisoquinoline-2(1H)-sulfonamide]
ENPP1 [1]
  Substrate Selectivity: Ki_AMP-pNP/Ki_cGAMP: >13.0
ENPP1 [2]
  Ki: < 100 nM
ENPP1 [3]
  Ki: 100 to 1000 nM

## COc1cc2ncnc(Nc3ccc(NS(N)(=O)=O)cc3)c2cc1OC [Example 114, N-(4-((6,7-dimethoxyquinazolin-4-yl)amino)phenyl)sulfamide]
ENPP1 [1]
  Substrate Selectivity: Ki_AMP-pNP/Ki_cGAMP: >42.7
ENPP1 [2]
  Ki: < 100 nM
ENPP1 [3]
  Ki: > 1000 nM

## NS(=O)(=O)c1ccc(CNc2ncnc3cc(F)ccc23)cc1 [Example 304, 4-(((7-fluoroquinazolin-4-yl)amino)methyl)benzenesulfonamide]
ENPP1 [1]
  Substrate Selectivity: Ki_AMP-pNP/Ki_cGAMP: >34.0
ENPP1 [2]
  Ki: < 100 nM
ENPP1 [3]
  Ki: > 1000 nM

## COc1cc2ncn(-c3ccc(CNS(N)(=O)=O)cc3)c2cc1OC [Example 120, N-(4-(5,6-dimethoxy-1H-benzo[d]imidazol-1-yl)benzyl)sulfamide]
ENPP1 [1]
  Substrate Selectivity: Ki_AMP-pNP/Ki_cGAMP: 54.5
ENPP1 [2]
  Ki: < 100 nM
ENPP1 [3]
  Ki: > 1000 nM

## COc1cc2nccc(N3CCC(CCNS(N)(=O)=O)CC3)c2cc1F [Example 220, N-(2-(1-(6-fluoro-7-methoxyquinolin-4-yl)piperidin-4-yl)ethyl)sulfamide]
ENPP1 [1]
  Substrate Selectivity: Ki_AMP-pNP/Ki_cGAMP: 35.9
ENPP1 [2]
  Ki: < 100 nM
ENPP1 [3]
  Ki: 100 to 1000 nM

## COc1ccc2c(N3CCc4cc(NS(N)(=O)=O)cc(F)c43)ccnc2c1 [Example 375, N-(7-fluoro-1-(7-methoxyquinolin-4-yl)indolin-5-yl)sulfamide]
ENPP1 [1]
  Substrate Selectivity: Ki_AMP-pNP/Ki_cGAMP: 25
ENPP1 [2]
  Ki: < 100 nM
ENPP1 [3]
  Ki: < 100 nM

## COc1cc2ncnc(N3CCC(CCNS(N)(=O)=O)CC3)c2cc1OC(C)C [Example 205, N-(2-(1-(6-isopropoxy-7-methoxyquinazolin-4-yl)piperidin-4-yl)ethyl)sulfamide]
ENPP1 [1]
  Substrate Selectivity: Ki_AMP-pNP/Ki_cGAMP: > 14.4
ENPP1 [2]
  Ki: 100 to 1000 nM
ENPP1 [3]
  Ki: > 1000 nM

## COc1cc2ncnc(N3CCC(CCC(N)=O)CC3)c2cc1OC [Example 222, 3-(1-(6,7-dimethoxyquinazolin-4-yl)piperidin-4-yl)propanamide]
ENPP1 [1]
  Substrate Selectivity: Ki_AMP-pNP/Ki_cGAMP: > 14.6
ENPP1 [2]
  Ki: 100 to 1000 nM
ENPP1 [3]
  Ki: > 1000 nM

## COc1cc2nccc(Oc3ccc(NS(N)(=O)=O)cc3)c2cc1OC [Example 125, N-(4-((6,7-dimethoxyquinolin-4-yl)oxy)phenyl)sulfamide]
ENPP1 [1]
  Substrate Selectivity: Ki_AMP-pNP/Ki_cGAMP: >562
ENPP1 [2]
  Ki: < 100 nM
ENPP1 [3]
  Ki: > 1000 nM

## NS(=O)(=O)N1CCC2(CCN(c3ccnc4cc(OC(F)F)ccc34)CC2)C1 [Example 265, 8-(7-(difluoromethoxy)quinolin-4-yl)-2,8-diazaspiro[4.5]decane-2-sulfonamide]
ENPP1 [1]
  Substrate Selectivity: Ki_AMP-pNP/Ki_cGAMP: >13.0
ENPP1 [2]
  Ki: 100 to 1000 nM
ENPP1 [3]
  Ki: > 1000 nM

## COc1cc2nccc(Oc3ccc(NS(=O)(=O)C4CCC4)cc3)c2cc1OC [Example 261, N-(4-((6,7-dimethoxyquinolin-4-yl)oxy)phenyl)cyclobutanesulfonamide]
ENPP1 [1]
  Substrate Selectivity: Ki_AMP-pNP/Ki_cGAMP: >12.9
ENPP1 [2]
  Ki: 100 to 1000 nM
ENPP1 [3]
  Ki: > 1000 nM

## Cn1cnc2nccc(-c3ccc4c(c3)CN(S(N)(=O)=O)CC4)c21 [Example 193, 7-(1-methyl-1H-imidazo[4,5-b]pyridin-7-yl)-3,4-dihydroisoquinoline-2(1H)-sulfonamide]
ENPP1 [1]
  Substrate Selectivity: Ki_AMP-pNP/Ki_cGAMP: > 38.6
ENPP1 [2]
  Ki: < 100 nM
ENPP1 [3]
  Ki: > 1000 nM

## COc1ccc2c(Nc3ccc(NS(N)(=O)=O)cc3)ccnc2n1 [Example 231, N-(4-((7-methoxy-1,8-naphthyridin-4-yl)amino)phenyl)sulfamide]
ENPP1 [1]
  Substrate Selectivity: Ki_AMP-pNP/Ki_cGAMP: 30.9
ENPP1 [2]
  Ki: < 100 nM
ENPP1 [3]
  Ki: < 100 nM

## COc1cc2ncc(-c3ccc4c(c3)CN(S(N)(=O)=O)CC4)c(Cl)c2cc1OC [Example 260, 7-(4-chloro-6,7-dimethoxyquinolin-3-yl)-3,4-dihydroisoquinoline-2(1H)-sulfonamide]
ENPP1 [1]
  Substrate Selectivity: Ki_AMP-pNP/Ki_cGAMP: 21.5
ENPP1 [2]
  Ki: < 100 nM
ENPP1 [3]
  Ki: < 100 nM

## COc1ccc2c(N3CCc4cc(NS(N)(=O)=O)ccc43)ccnc2c1F [Example 376, N-(1-(8-fluoro-7-methoxyquinolin-4-yl)indolin-5-yl)sulfamide]
ENPP1 [1]
  Substrate Selectivity: Ki_AMP-pNP/Ki_cGAMP: >77
ENPP1 [2]
  Ki: 100 to 1000 nM
ENPP1 [3]
  Ki: > 1000 nM

## COc1cc2nccc(-c3ccc4c(c3)CN(S(N)(=O)=O)CC4)c2cc1OC [Example 148, 7-(6,7-dimethoxyquinolin-4-yl)-3,4-dihydroisoquinoline-2(1H)-sulfonamide]
ENPP1 [1]
  Substrate Selectivity: Ki_AMP-pNP/Ki_cGAMP: 10.1
ENPP1 [2]
  Ki: < 100 nM
ENPP1 [3]
  Ki: < 100 nM

## COc1ccc2c(Oc3ccc(S(N)(=O)=O)cc3)ccnc2n1 [Example 361, 4-(7-Methoxy-[1,8]naphthyridin-4-yl-oxy)-benzene sulfonamide]
ENPP1 [1]
  Substrate Selectivity: Ki_AMP-pNP/Ki_cGAMP: 32
ENPP1 [2]
  Ki: < 100 nM
ENPP1 [3]
  Ki: < 100 nM

## COc1ccc2c(-c3ccc4c(c3F)CN(S(N)(=O)=O)CC4)ccnc2c1 [Example 410, 8-fluoro-7-(7-methoxyquinolin-4-yl)-3,4-dihydroisoquinoline-2(1H)-sulfamide]
ENPP1 [1]
  Substrate Selectivity: Ki_AMP-pNP/Ki_cGAMP: >42
ENPP1 [2]
  Ki: < 100 nM
ENPP1 [3]
  Ki: 100 to 1000 nM

## COc1cc2ncc(C#N)c(-c3ccc(CNS(N)(=O)=O)cc3)c2cc1OC [Example 241, N-(4-(3-cyano-6,7-dimethoxyquinolin-4-yl)benzyl)sulfamide]
ENPP1 [1]
  Substrate Selectivity: Ki_AMP-pNP/Ki_cGAMP: 49.0
ENPP1 [2]
  Ki: < 100 nM
ENPP1 [3]
  Ki: 100 to 1000 nM
